# Laboratory results taken from patent US5872104A, “Combinations and methods for reducing antimicrobial resistance” (Oridigm Corporation, priority 1994, dated 1999).
# pIC50, pKi: −log10 of the molar value. Read-outs that look alike come from different tables or passages of the source.
# Columns and labels:
# [1] = system: S. aureus 27660 (erythromycin resistant); assay type: cell-based; conditions: in combination with erythromycin
# SAH hydrolase = conditions: cited from earlier work; for pKi: De Clercq & Cools (1985)
# SAM synthetase = conditions: cited from earlier work
# [2] = system: vaccinia virion mRNA(guanine-7)methyltransferase; conditions: 100 μM; cited from earlier work
# [3] = mice, cited from earlier work
# GSH = conditions: cited from earlier work; for reduction of GSH levels: 0.2 mmol/kg (S) and 0.4 mmol/kg (S,R), liver, kidney and pancreas; for depletion of GSH: 0.2 mg/kg
# SAHH hydrolase = conditions: cited from earlier work
# [4] = system: tumor-derived methionine adenosyltransferases; conditions: cited from earlier work
# [5] = system: vesicular stomatitis virus; conditions: primary rabbit kidney cells; cited from earlier work
# human retrovirus = conditions: cited from earlier work
# L1210 cells = conditions: absence of polyamine depletion; cited from earlier work
# tRNA methylases = conditions: cited from earlier work
# adenosine deaminase = conditions: cited from earlier work
# methyl transfer from SAM = conditions: cited from earlier work
# [6] = system: RNA methyltransferase from Streptomyces antibioticus; conditions: 100 μM; cited from earlier work
# [7] = system: RNA synthesis in Hela cells; conditions: cited from earlier work
compound,measurement,setting,value
Nc1ncnc2c1ncn2[C@H]1C[C@H](O)[C@@H](CO)O1 [2'-deoxyadenosine],enhanced killing with erythromycin,[1],enhanced the killing
same,SAH hydrolase inhibition,SAH hydrolase,suicide inactivators of SAH hydrolase
"CS/C=C\[C@H](N)C(=O)O (stereo in doubt) [L-cis-AMTB, L-2-amino-4-methylthio-cis-but-3-enoic acid]",inhibitory potency relative to L-cis-AMB,SAM synthetase,slightly less inhibitory than L-cis-AMB
Nc1nccc2c1ncn2[C@@H]1O[C@H](CSCC[C@H](N)C(=O)O)[C@@H](O)[C@H]1O [S-(3-deazaadenosyl)-L-homocysteine],inhibition,[2],84%
"Nc1ncnc2c1ncn2[C@@H]1O[C@H](CO)[C@@H](O)[C@@H]1O [Ara-A, 9-β-arabinofuranosyladenine]",LD50,[3]; i.p.,"4,677 mg/kg"
same,LD50,[3]; orally,"7,950 mg/kg"
same,enhanced killing with erythromycin,[1],enhanced the killing
same,SAH hydrolase inhibition,SAH hydrolase,suicide inactivators of SAH hydrolase
same,activity relative to 2'-deoxyadenosine,SAH hydrolase; suicide inactivation of SAH hydrolase,twice as active as 2'-deoxyadenosine
Nc1ncnc2c1ncn2[C@@H]1C[C@H](CSCC[C@H](N)C(=O)O)[C@@H](O)[C@H]1O [S-aristeromycinyl-L-homocysteine],inhibition,[2],66%
CCCC[S@](=N)(=O)CC[C@H](N)C(=O)O [L-buthionine-(S)-sulfoximine],reduction of GSH levels,GSH,effective in reducing GSH levels
"Nc1ncnc2c1ncn2[C@@H]1CC[C@@H](O)[C@H]1O [DHCaA, dihydroxycyclopentanyladenine]",antiviral activity and cytotoxicity vs first generation,SAHH hydrolase,retained antiviral activity and considerably lower cytotoxicity than their parent first generation inhibitors
"N[C@]1(C(=O)O)C[C@H]2CC[C@@H]1C2 [(1R,2R,4S) isomer of 2-aminonorbornane-2-carboxylic acid, 2-aminonorbornane-2-carboxylic acid]",SAM synthetase inhibition,SAM synthetase,effective inhibitors
C/C(Cl)=C/C[C@H](N)C(=O)O [(Z)-L-2-amino-5-chloro-trans-4-hexanoic acid],inhibition,[4],effective inhibitors
"Nc1ncnc2c1ncn2C[C@H](O)CO [(S)-DHPA, 9(S)-(2,3-dihydroxypropyl)adenine]",minimum inhibitor concentration (50% reduction of cytopathogenicity),[5],20 µg/mL
same,pKi,SAH hydrolase,5.85
same,effective inhibitory concentration,human retrovirus,about 60 μg/ml
CC(C)COC(=O)C(O)Cn1cnc2c(N)ncnc21 (racemic) [(RS)-AHPA isobutyl ester],minimum inhibitor concentration (50% reduction of cytopathogenicity),[5],2 µg/mL
same,effective inhibitory concentration,human retrovirus,~1.2 µg/mL
same,activity index,human retrovirus; in vitro cytotoxicity vs activity,80
NC1(C(=O)O)CCCCC1 [1-aminocyclohexanecarboxylic acid],inhibition,[4],effective inhibitors
"Nc1ncnc2c1ncn2[C@@H]1C=C[C@@H](O)[C@H]1O [DHCeA, dihydroxycyclopentenyladenine]",antiviral activity and cytotoxicity vs first generation,SAHH hydrolase,retained antiviral activity and considerably lower cytotoxicity than their parent first generation inhibitors
C[Se]CC[C@H](N)C(=O)O [selenomethionine],pIC50,L1210 cells,3.89
"Nc1nccc2c1ncn2[C@@H]1C[C@H](CO)[C@@H](O)[C@H]1O [carbocyclic 3-deazaadenosine, carbocyclic-3-deazaadenosine]",minimum inhibitor concentration (50% reduction of cytopathogenicity),[5],0.2 µg/mL
same,pKi,SAH hydrolase,7.89
same,effective inhibitory concentration,human retrovirus,~1.4 µg/mL
CC=CC[C@H](N)C(=O)O [L-2-amino-4-hexanoic acid],inhibition,[4],effective inhibitors
Nc1c2nc[nH]c2nc[n+]1[O-] [adenine-N^1 -oxide],inhibition of tRNA methylases,tRNA methylases,gave inhibition that would be acceptable
Nc1ncnc2nc[nH]c12.O=P(O)(O)O [adenine phosphate],inhibition of tRNA methylases,tRNA methylases,gave inhibition that would be acceptable
NC(C(=O)O)C1CCCC1 (stereo not shown) [cyclopentaneglycine],SAM synthetase inhibition,SAM synthetase,effective inhibitors
CCSCC[C@H](N)C(=O)O [L-ethionine],inhibition,[4],effective inhibitors
"OCC1NC=Nc2c1ncn2[C@@H]1O[C@H](CO)[C@@H](O)[C@H]1O (stereo partly shown) [1,6-dihydro-6-hydroxy-methylpurine nucleoside]",ADA inhibition,adenosine deaminase,inhibitors of ADA
CNc1ncnc2[nH]cnc12 [6-methyladenine],inhibition of tRNA methylases,tRNA methylases,gave inhibition that would be acceptable
"Nc1nc(F)nc2c1ncn2[C@@H]1O[C@H](CSCCC(N)C(=O)O)[C@@H](O)[C@H]1O (stereo partly shown) [2-FSAH, 2-fluoro-S-adenosylhomocysteine]",SAH hydrolase inhibition,SAH hydrolase,effective inhibitor of SAHH
Nc1ncnc2nc[nH]c12.O=S(=O)(O)O [adenine sulfate],inhibition of tRNA methylases,tRNA methylases,gave inhibition that would be acceptable
6-methoxyadenine,inhibition of tRNA methylases,tRNA methylases,possible exceptions
CN(C)c1ncnc2[nH]cnc12 [6-dimethyladenine],inhibition of tRNA methylases,tRNA methylases,possible exceptions
"Nc1nccc2c1ncn2[C@@H]1C=C[C@@H](O)[C@H]1O [c^3 -DHCeA, dihydroxycyclopentenyl-3-deazaadenine]",antiviral activity and cytotoxicity vs first generation,SAHH hydrolase,retained antiviral activity and considerably lower cytotoxicity than their parent first generation inhibitors
"NC1(C(=O)O)CC2CC1C2 (single isomer, unassigned; (+)) [(+)-2-aminobicyclo[2.1.1]hexane-2-carboxylic acid]",inhibition,[4],most effective
same,SAM synthetase inhibition,SAM synthetase,most effective
same,pIC50,L1210 cells,2.30
C[S+](CCCN)C[C@H]1O[C@@H](n2cnc3c(N)ncnc32)[C@H](O)[C@@H]1O (stereo partly shown) [S-adenosyl-(5')-3-methylthio-propylamine],inhibition,methyl transfer from SAM,effective inhibitors
CC1(C)N=C(N)N=C(N)N1c1ccc(CCCCc2ccc(S(=O)(=O)F)cc2Cl)c(Cl)c1 [NSC 127755],s.c. toxicity (LD100),[3]; s.c.,≥ 156 mg/kg
C[S+](CC[C@H](N)C(=O)O)C[C@H]1O[C@@H](n2cnc3c(=O)[nH]cnc32)[C@H](O)[C@@H]1O (stereo partly drawn) [S-inosyl-L-methionine],inhibition,methyl transfer from SAM,effective inhibitors
"CCCCS(=N)(=O)CC[C@H](N)C(=O)O (stereo partly drawn) [L-buthionine-(S,R)-sulfoximine]",reduction of GSH levels,GSH,effective in reducing GSH levels
CSCSC[C@H]1O[C@@H](n2cnc3c(N)ncnc32)[C@H](O)[C@@H]1O [5'-S-methylthiomethyladenosine],inhibition,[6],65%
CC[Se]CCC(N)C(=O)O (racemic) [seleno-DL-ethionine],inhibition,[4],effective inhibitors
"Nc1nc(N)c2ncn([C@@H]3C[C@H](O)[C@@H](O)[C@H]3O)c2n1 (relative stereo) [2,6-diamino-analogue]",SAH hydrolase inhibition,SAH hydrolase,inhibitors of SAHH
Nc1ncnc2c1ncn2[C@@H]1O[C@H](CS(=O)(=O)CC[C@H](N)C(=O)O)[C@@H](O)[C@H]1O [S-adenosyl-L-homocysteine sulfone],inhibition,[2],40%
NC1(C(=O)O)CCC1 [1-aminocyclobutanecarboxylic acid],inhibition,[4],effective inhibitors
NC1(C(=O)O)CC2CCC2C1 (stereo not shown) [3-aminobicyclo[3.2.0]heptane-3-carboxylic acid],SAM synthetase inhibition,SAM synthetase,effective inhibitors
CCCC[S@@](=N)(=O)CC[C@H](N)C(=O)O [L-buthionine-(R)-sulfoximine],depletion of GSH,GSH; kidney,modest depletion in the kidney
same,depletion of GSH,GSH; liver or pancreas,did not show any significant depletion of GSH
"NC1(C(=O)O)CC2CC1C1CCCC21 [(1R,2R,4S) isomer of 2-amino-5,6-exo-trimethylenenorbornane-2-carboxylic acid, 2-amino-5,6-exo-trimethylenenorbornane-2-carboxylic acid]",SAM synthetase inhibition,SAM synthetase,effective inhibitors
OC[C@H]1O[C@@H](n2cnc3c2N=CNC[C@H]3O)[C@H](O)[C@@H]1O [Coformycin],ADA inhibition,adenosine deaminase,potent inhibitors of ADA
"Nc1ncnc2c1ncn2[C@@H]1O[C@H](CO)C[C@H]1O [Cordycepin, 3'-deoxyadenosine]",RNA synthesis,[7]; 200 μg/ml,totally inhibits RNA synthesis
same,DNA and protein synthesis,[7],not affected
same,"synthesis of mature rRNA, ribosomal precursor 45S RNA and tRNA",[7],"inhibits the synthesis of mature rRNA, ribosomal precursor 45S RNA and tRNA"
same,rRNA and tRNA syntheses,[7]; lower concentrations,selectively inhibited
"Nc1nccc2c1ncn2[C@@H]1CC[C@@H](O)[C@H]1O [c^3 -DHCaA, dihydroxycyclopentanyl-3-deazaadenine]",antiviral activity and cytotoxicity vs first generation,SAHH hydrolase,retained antiviral activity and considerably lower cytotoxicity than their parent first generation inhibitors
Nc1ncnc2c1ncn2C1OC(CC2CCC(N)C(=O)N2)C(O)C1O (stereo not shown) [cyclosinefungin],inhibition,[6],50%
"Nc1ncnc2c1ncn2CC(O)C(=O)O (racemic) [(RS)-AHPA, (R,S)-3-adenine-9-yl-2-hydroxypropanocic acid]",pKi,SAH hydrolase,7.14
6-mercaptoadenine,inhibition of tRNA methylases,tRNA methylases,gave inhibition that would be acceptable
Nc1ncnc2c1ncn2[C@@H]1O[C@H](C[S+]([O-])CC[C@H](N)C(=O)O)[C@@H](O)[C@H]1O (stereo partly drawn) [S-adenosyl-L-homocysteine sulfoxide],inhibition,[2],47%
